Where only a bound is given, the exact number is not on record here.

This assay deals with T1, BACE enzyme (Homo sapiens, UniProt P56817).
T1 construct: the catalytic domain, appended by a C-terminal poly-histidine tag, is secreted out into the cellular medium; made in house; host or cells: Drosophila melanogaster S2 cells
T1 sequence (P56817 75-416 limits assumed): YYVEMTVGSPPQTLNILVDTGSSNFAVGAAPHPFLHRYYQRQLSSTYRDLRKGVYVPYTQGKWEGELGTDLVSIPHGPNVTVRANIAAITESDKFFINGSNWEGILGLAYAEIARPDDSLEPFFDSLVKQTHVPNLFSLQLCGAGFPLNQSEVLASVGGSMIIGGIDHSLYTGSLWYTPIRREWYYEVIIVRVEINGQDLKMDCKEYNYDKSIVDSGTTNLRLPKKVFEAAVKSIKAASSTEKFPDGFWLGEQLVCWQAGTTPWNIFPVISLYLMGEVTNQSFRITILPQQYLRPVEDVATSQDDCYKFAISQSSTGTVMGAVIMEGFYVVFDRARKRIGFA
Nature of the assay: BACE enzyme inhibition, fluorescence-quenched peptide substrate MCA-EVNLDAEFK(DNP). In kind it is biochemical. The following applies: 50 mM acetate, pH 4.5, 0.25 mg/ml bovine serum albumin, 2.5% DMSO; read-out: Activity Rating (based on IC50 values). The source says: There are a number of methods by which inhibitors of the BACE enzyme can be identified experimentally. The enzyme can be obtained from membrane samples from natural tissues or cultured cells or can be expressed recombinantly in a host cell by well known methods of molecular biology. […] The enzymatic activity and/or ligand binding capability of the enzyme can be assessed within these membrane samples, or the enzyme can be purified to varying extents. As an illustrative example, the nucleic acid sequence encoding the pro and catalytic domains of human BACE can be appended on the 5′ end with an untranslated and signal sequence from the gene for acetylcholinesterase, and on the 3′ end with a sequence encoding a poly-histidine tag. This cDNA can then be expressed in Drosophila melanogaster S2 cells in which the signal and pro sequences of the transcribed/translated protein are removed by cellular proteases and the catalytic domain, appended by a C-terminal poly-histidine tag, is secreted out into the cellular medium. The enzyme can then be purified from the culture medium by nickel affinity chromatography by methods well known to those trained in the art [Mallender, W. et al., (2001) “Characterization of recombinant, soluble beta-secretase from an insect cell expression system.” Mol. Pharmacol. 59: 619-626]. Similar strategies for expressing and purifying various forms of BACE in bacterial, mammalian and other cell types would be known to one skilled in the art.
The enzyme thus obtained can be put in contact with a test compound and with an appropriate substrate on which enzyme-mediated peptide bond hydrolysis is known to occur. The ability of the test compound to diminish the rate of substrate hydrolysis can then be quantified as a measure of inhibition potency. Appropriate substrates can be prepared as peptides, proteins, or chemically modified versions of peptides or proteins, that contain an amino acid sequence that is recognized as a substrate by the enzyme. For example, the amino acid sequence immediately proximal to the beta-cleavage site within Swedish mutant APP is known to be recognized as a substrate for BACE. […] Longer peptide and protein substrates can also be designed by extending the amino acid composition on the N-terminal, the C-terminal, or both ends.
In one known application of (SEQ. ID. NO.:1), X is a 7-methoxycoumarin-4-acetyl (MCA) group and Y is a dinitrophenyl (DNP) group [Marcinkeviciene, J. et al., (2001) “Mechanism of inhibition of beta-site amyloid precursor protein-cleaving enzyme (BACE) by a statine-based peptide.” J. Biol. Chem. 276: 23790-23794]. When this peptide is intact, the natural fluorescence of the MCA group is quenched by its proximity to the DNP group. […] The increase in fluorescence intensity that accompanies enzyme-mediated peptide hydrolysis can be measured as a function of time to quantify the velocity of enzyme catalysis. In a typical assay system the BACE enzyme is diluted into a buffer system composed of 50 mM acetate, pH 4.5 containing 0.25 mg/ml bovine serum albumin. To this is added neat dimethyl sulfoxide (DMSO) or a stock solution of test compound dissolved in DMSO so that the final amount of DMSO in all assays is held constant at 2.5% (v:v). The enzymatic reaction is then initiated by addition of a stock solution of the substrate peptide to a known concentration. The fluorescence increase with time after substrate addition is monitored with an appropriate fluorescence detection instrument, such as a microplate reader or spectrofluorometer. The slope of the signal vs. time plot (progress curve) for samples to which only DMSO was added is taken as a measure of the uninhibited velocity and represents 100% enzymatic activity.
As a reminder, the IC50 is the concentration at which inhibition is half-maximal. `CCCS(=O)(=O)N[C@]1(C(C)CC)CCN([C@@H](CCc2ccccc2)C(=O)N[C@@H](Cc2ccccc2)C(O)CNCc2cccc(OC)c2)C1=O` (stereo partly drawn) [Example 27, (2S)-2-(3(S)-(propylsulfonamido)-3-((S)-sec-butyl)-2-oxo-pyrrolidin-1-yl)-N-[(1S)-1-benzyl-2-hydroxy-3-(3-methoxy-benzylamino)-propyl]-4-phenyl-butyramide]: the concentration for half-maximal inhibition (IC50) was 1000 to 50000 nM.

Turning to `CCC(C)[C@@]1(NC(=O)OC)CCN([C@@H](CCc2ccccc2)C(=O)N[C@@H](Cc2ccccc2)[C@@H](O)CNCc2cccc(OC)c2)C1=O` (single isomer, unassigned) [Example 15], the IC50 was in the range of 1000 to 50000 nM.

In the case of `COc1cccc(CNC[C@@H](O)[C@H](Cc2cc(F)cc(F)c2)NC(=O)[C@H](CCc2cccc(F)c2)N2CCC(CC3CC3)(NC(C)=O)C2=O)c1` (stereo in doubt) [Example 40, (2S)-2-(3(S)-acetylamino-3-(cyclopropylmethyl)-2-oxo-pyrrolidin-1-yl)-N-[(1S,2R)-1-(3,5-difluorobenzyl)-2-hydroxy-3-(3-methoxybenzylamino)-propyl]-4-(3-fluorophenyl)-butyramide], the IC50 is less than 100 nM.

Consider `CCC(C)[C@@]1(NS(=O)(=O)CC)CCN([C@@H](CCc2ccccc2)C(=O)N[C@@H](Cc2ccccc2)C(O)CNCc2cccc(OC)c2)C1=O` (stereo partly drawn) [Example 26, (2S)-2-(3(S)-(ethylsulfonamido)-3-((S)-sec-butyl)-2-oxo-pyrrolidin-1-yl)-N-[(1S)-1-benzyl-2-hydroxy-3-(3-methoxy-benzylamino)-propyl]-4-phenyl-butyramide], for which the IC50 lay within 1000 to 50000 nM.

As for `COc1cccc(CNC[C@@H](O)[C@H](Cc2cc(F)cc(F)c2)NC(=O)[C@H](CCc2ccccc2)N2CC[C@](NC(C)=O)(C(C)C)C2=O)c1` [Example 1, (2S)-2-(3-Acetylamino-3-isopropyl-2-oxo-pyrrolidin-1-yl)-N-[(1S,2R)-1-(3,5-difluoro-benzyl)-2-hydroxy-3-(3-methoxy-benzylamino)-propyl]-4-phenyl-butyramide], the IC50 was less than 100 nM.

Consider `CC[C@H](C)[C@@]1(NC(=O)CCO)CCN([C@@H](CCc2ccccc2)C(=O)N[C@@H](Cc2ccccc2)[C@H](O)CNCc2cccc(OC)c2)C1=O` [Example 24, (2S)-2-(3(S)-(3-hydroxypropionylamino)-3-((S)-sec-butyl)-2-oxo-pyrrolidin-1-yl)-N-[(1S,2R)-1-benzyl-2-hydroxy-3-(3-methoxy-benzylamino)-propyl]-4-phenyl-butyramide], for which the IC50 was less than 100 nM.

As to `CC[C@H](C)[C@@]1(NC(C)=O)CCN([C@@H](CCc2ccccc2)C(=O)N[C@@H](Cc2ccccc2)[C@H](O)CNCc2cccc(Cl)c2)C1=O` [Example 29, (2S)-2-(3(S)-acetylamino-3-((S)-sec-butyl)-2-oxo-pyrrolidin-1-yl)-N-[(1S,2R)-1-benzyl-2-hydroxy-3-(3-chloro-benzylamino)-propyl]-4-phenyl-butyramide], the IC50 was less than 100 nM.

Take `CC[C@H](C)[C@@]1(NC(=O)CCc2cnc[nH]2)CCN([C@@H](CCc2ccccc2)C(=O)N[C@@H](Cc2ccccc2)[C@H](O)CNCc2cccc(OC)c2)C1=O` [Example 20, (2S)-2-(3(S)-(3-3H-imidazol-4-yl-propionylamino)-3-((S)-sec-butyl)-2-oxo-pyrrolidin-1-yl)-N-[(1S,2R)-1-benzyl-2-hydroxy-3-(3-methoxy-benzylamino)-propyl]-4-phenyl-butyramide]: the IC50 lay within 100 to 1000 nM.

Regarding `COc1cccc(CNC[C@@H](O)[C@H](Cc2cc(F)cc(F)c2)NC(=O)[C@H](CCc2ccccc2OC)N2CCC(CC3CC3)(NC(C)=O)C2=O)c1` (stereo in doubt) [Example 38, (2S)-2-(3(S)-acetylamino-3-(cyclopropylmethyl)-2-oxo-pyrrolidin-1-yl)-N-[(1S,2R)-1-(3,5-difluorobenzyl)-2-hydroxy-3-(3-methoxybenzylamino)-propyl]-4-(2-methoxyphenyl)-butyramide], the half-maximal inhibitory concentration (IC50) is less than 100 nM.

Consider `COc1cccc(CNC[C@@H](O)[C@H](Cc2cc(F)cc(F)c2)NC(=O)[C@H](CCc2ccc(F)cc2)N2CCC(CC3CC3)(NC(C)=O)C2=O)c1` (stereo in doubt) [Example 41, (2S)-2-(3(S)-acetylamino-3-(cyclopropylmethyl)-2-oxo-pyrrolidin-1-yl)-N-[(1S,2R)-1-(3,5-difluorobenzyl)-2-hydroxy-3-(3-methoxybenzylamino)-propyl]-4-(4-fluorophenyl)-butyramide], for which the IC50 is less than 100 nM.

For the compound `CC[C@H](C)[C@@]1(NC(C)=O)CCN([C@@H](CCc2ccccc2)C(=O)N[C@@H](Cc2ccccc2)[C@H](O)CNCC2CC2)C1=O` [Example 31, (2S)-2-(3(S)-acetylamino-3-((S)-sec-butyl)-2-oxo-pyrrolidin-1-yl)-N-[(1S,2R)-1-benzyl-2-hydroxy-3-(cyclopropylmethyl)amino-propyl]-4-phenyl-butyramide], the IC50 is 100 to 1000 nM.

For the compound `CCNC(=O)N[C@]1([C@@H](C)CC)CCN([C@@H](CCc2ccccc2)C(=O)N[C@@H](Cc2ccccc2)[C@H](O)CNCc2cccc(OC)c2)C1=O` [Example 18, (2S)-2-(3(S)-ethylureido-3-((S)-sec-butyl)-2-oxo-pyrrolidin-1-yl)-N-[(1S,2R)-1-benzyl-2-hydroxy-3-(3-methoxy-benzylamino)-propyl]-4-phenyl-butyramide], the IC50 is less than 100 nM.

Regarding `CC[C@H](C)[C@@]1(NC(=O)C(F)(F)F)CCN([C@@H](CCc2ccccc2)C(=O)N[C@@H](Cc2ccccc2)[C@H](O)CNCc2cccc(OC)c2)C1=O` [Example 19, (2S)-2-(3(S)-(trifluoroacetyl)amino-3-((S)-sec-butyl)-2-oxo-pyrrolidin-1-yl)-N-[(1S,2R)-1-benzyl-2-hydroxy-3-(3-methoxy-benzylamino)-propyl]-4-phenyl-butyramide], the IC50 fell in the range of 100 to 1000 nM.

Turning to `CC(=O)NC1(CC(C)C)CCN([C@@H](CCc2ccccc2)C(=O)N[C@@H](Cc2ccccc2)[C@H](O)CNCC2CC2)C1=O` (stereo in doubt) [Example 32, (2S)-2-(3(S)-acetylamino-3-(isobutyl)-2-oxo-pyrrolidin-1-yl)-N-[(1S,2R)-1-benzyl-2-hydroxy-3-(cyclopropylmethyl)amino-propyl]-4-phenyl-butyramide], the IC50 fell in the range of 100 to 1000 nM.

On to `CCC(C)[C@@]1(NC(=O)CN)CCN([C@@H](CCc2ccccc2)C(=O)N[C@@H](Cc2ccccc2)[C@H](O)CNCc2cccc(OC)c2)C1=O` (single isomer, unassigned) [Example 22], for which the IC50 fell in the range of 100 to 1000 nM.

`CC[C@H](C)[C@@]1(NC(=O)CCCO)CCN([C@@H](CCc2ccccc2)C(=O)N[C@@H](Cc2ccccc2)[C@H](O)CNCc2cccc(OC)c2)C1=O` [Example 25, (2S)-2-(3(S)-(4-hydroxybutyrylamino)-3-((S)-sec-butyl)-2-oxo-pyrrolidin-1-yl)-N-[(1S,2R)-1-benzyl-2-hydroxy-3-(3-methoxy-benzylamino)-propyl]-4-phenyl-butyramide]: the IC50 is less than 100 nM.

For the compound `CCC(C)[C@@]1(NC(=O)CN)CCN([C@@H](CCc2ccccc2)C(=O)N[C@@H](Cc2ccccc2)[C@@H](O)CNCc2cccc(OC)c2)C1=O` (single isomer, unassigned) [Example 23], the IC50 is 1000 to 50000 nM.

Consider `C#CCNC[C@@H](O)[C@H](Cc1ccccc1)NC(=O)[C@H](CCc1ccccc1)N1CC[C@](NC(C)=O)([C@@H](C)CC)C1=O` [Example 30, (2S)-2-(3(S)-acetylamino-3-((S)-sec-butyl)-2-oxo-pyrrolidin-1-yl)-N-[(1S,2R)-1-benzyl-2-hydroxy-3-(propargylamino)-propyl]-4-phenyl-butyramide], for which the IC50 is less than 100 nM.
